According to patent US20230203060A1 (GENFLEET THERAPEUTICS (SHANGHAI) INC., priority 2020, published 2023):

Tested on: KRAS G12C mutant MIA PaCa-2 cells
Experiment: Cell proliferation inhibition experiment, 3D spheroid, CellTiter-Glo, MIA PaCa-2
Format: cell-based, human
Details: Homo sapiens, MIA PaCa-2, 120 h, 3D cell model in 384-well spheroid plate, 5 days, CellTiter-Glo; read-out: MIA-PaCa2 IC50
How it was run: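 Luminescent ATP read-out (CellTiter-Glo) after 5-day compound treatment of spheroids formed overnight from 200 MIA PaCa-2 cells/well; compounds in 3.16-fold series, 0.1% DMSO final. IC50 derived by four-parameter fit of percent inhibition, normalized to DMSO control and medium blank.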

With `C=CC(=O)N1CCN2C(=O)c3c(N4CCC(C)(C)C4)nc(-c4c(O)cccc4F)c(Cl)c3OC[C@H]2C1` [Z21, (6aR)-8-acryloyl-4-chloro-1-(3,3-dimethylpyrrolidin-1-yl)-3-(2-fluoro-6-hydroxyphenyl)-6,6a,7,8,9,10-hexahydro-12H-pyrazino[2,1-c]pyrido[3,4-f][1,4]oxazepin-12-one] as the molecule, how does the IC50 read?
The IC50 was 65 nM.

For `C=CC(=O)N1CCN2C(=O)c3c(N(C)c4c(C(C)C)ncnc4C(C)C)nc(-c4c(O)cccc4F)c(Cl)c3OC[C@H]2C1` [Z20, (6aR)-8-acryloyl-4-chloro-1-((4,6-diisopropylpyrimidin-5-yl)(methyl)amino)-3-(2-fluoro-6-hydroxyphenyl)-6,6a,7,8,9,10-hexahydro-12H-pyrazino[2,1-c]pyrido[3,4-f][1,4]oxazepin-12-one], which IC50 is on record?
Its IC50 is 8 nM.

With `C=CC(=O)N1CCN2C(=O)c3c(Nc4c(C(C)C)ncnc4C(C)C)nc(-c4c(O)cccc4F)c(Cl)c3OC[C@H]2C1` [Z15, (6aR)-8-acryloyl-4-chloro-1-((4,6-diisopropylpyrimidin-5-yl)amino)-3-(2-fluoro-6-hydroxyphenyl)-6,6a,7,8,9,10-hexahydro-12H-pyrazino[2,1-c]pyrido[3,4-f][1,4]oxazepin-12-one] as the molecule, how does the IC50 read?
Its IC50 is 15 nM.
